From PubChem BioAssay (NCI)
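Growth conditions: 96-well plates. Treatment: test compound, 48 hours, 5 concentrations. Analysis: linear interpolation between bracketing concentrations; unreached endpoints set to highest concentration. At the GI50, growth is halved. TGI marks complete inhibition of growth.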

Key:
Experiment in all cases: NCI tumour cell line growth inhibition, 48 h
[1] = test system: A549 NSCLC
[2] = test system: CAKI-1 renal
[3] = test system: CCRF-CEM leukemia
[4] = test system: MDA-MB-231 breast
[5] = test system: NCI-H23 lung
[6] = test system: PC-3 prostate
[7] = test system: SW-620 colon
[8] = test system: UO-31 renal
[9] = test system: OVCAR-4 ovarian
[10] = test system: SK-OV-3 ovarian

| Compound | TGI [1] | TGI [2] | TGI [3] | TGI [4] | TGI [5] | TGI [6] | TGI [7] | TGI [8] | TGI [9] | TGI [10] | GI50 [1] | GI50 [2] | GI50 [3] | GI50 [4] | GI50 [5] | GI50 [6] | GI50 [10] | GI50 [7] | GI50 [8] |
| --- | --- | --- | --- | --- | --- | --- | --- | --- | --- | --- | --- | --- | --- | --- | --- | --- | --- | --- | --- |
| C=C1C(=O)O[C@H]2C/C(C=O)=C\[C@H]3O[C@H]3/C(COC(=O)C(C)C)=C/CC12 (some centres not stated) | 37.3 µM | 7.31 µM | 6.63 µM | 17.3 µM | 20.3 µM | 8.59 µM | 6.87 µM | 18 µM |  |  |  |  |  |  |  |  |  |  |  |
| Cc1cccc(C(O)c2cccnc2)c1O (configuration not stated) | > 100 µM | > 100 µM | > 100 µM | > 100 µM | > 100 µM | > 100 µM | > 100 µM | > 100 µM |  |  |  |  |  |  |  |  |  |  |  |
| CC1(C)N=C(N)N=C(N)N1c1ccc(OCCCOc2ccccc2)c(Cl)c1 | > 100 µM | 44.3 µM | 29.7 µM |  | 10.7 µM |  | 13.7 µM | > 23.8 µM | 14.2 µM | 35.1 µM |  |  |  |  |  |  |  |  |  |
| COC(=O)C(C(=O)OC)C1CC(=O)c2c(Br)sc(Br)c21 (configuration not stated) | 68.8 µM | 21.1 µM | 15.4 µM |  | 25.4 µM | 29 µM | 26.4 µM | 29.5 µM | 26.3 µM | 44 µM |  |  |  |  |  |  |  |  |  |
| Cc1ccc2cnc(N)c(C#Cc3cncc(C(=O)Nc4ccc(CN5CCN(C)CC5)c(C(F)(F)F)c4)c3)c2c1 | 1.19 µM | 1.27 µM | 0.897 µM | 0.839 µM | 1.25 µM | 1.43 µM | 0.54 µM | 1.22 µM |  | 1.63 µM | 0.485 µM | 0.627 µM | 0.197 µM | 0.186 µM | 0.492 µM | 0.679 µM | 0.869 µM | 0.131 µM | 0.589 µM |
| COC(=O)C1=C(C)NC2(C)OC(C)(O)C(C(C)=O)C12C(C)=O (configuration not stated) | > 100 µM | > 100 µM | > 100 µM | > 100 µM | > 100 µM | > 100 µM | > 100 µM |  | > 100 µM | 85.8 µM |  |  |  |  |  |  |  |  |  |
| O=C1OC2C=CC1C1(CCOC1=O)C2 (configuration not stated) | > 100 µM | > 100 µM | > 100 µM |  | > 100 µM |  | > 100 µM | > 100 µM | > 100 µM |  |  |  |  |  |  |  |  |  |  |
| CCCCCCCCCCCCCCCCNc1ccn(C2CC(OP(=O)(O)OCC3OC(n4cc(CC)c(=O)[nH]c4=O)CC3O)C(CO)O2)c(=O)n1 (configuration not stated) | 55.2 µM | > 100 µM |  | 68.3 µM | > 100 µM | 37.1 µM | 65.4 µM | 53 µM | > 100 µM | 82.1 µM |  |  |  |  |  |  |  |  |  |
| CC1(C)CC2(C)OC(=N)C1(C#N)C2(C#N)C#N (configuration not stated) | 60 µM | 12.3 µM |  | 21.2 µM | 21.4 µM | 30.3 µM | 11.1 µM | 16.2 µM |  | > 100 µM |  |  |  |  |  |  |  |  |  |
| COc1ccc(NS(=O)c2cccc(C)c2)cc1 (configuration not stated) | > 100 µM | > 100 µM | > 100 µM | > 100 µM | > 100 µM | > 100 µM | > 100 µM | > 100 µM |  |  |  |  |  |  |  |  |  |  |  |
